This is an account of results in ChEMBL document CHEMBL1201861, “Genomics of Drug Sensitity in Cancer screening data, Wellcome Trust Sanger Institute”.

Some results are limits rather than exact numbers.

Among the test systems are REH; SK-MM-2; P31-FUJ; LB996-RCC; NCI-H748; CA46; NB7; U-698-M; KMS-12-PE; Kasumi 1; EW-22; NCI-H2196; NCI-H1436; DMS-153; Daudi; NALM-6; SUP-T1; BL-41; EHEB.
Holding throughout (experiment): cells
Assay type in all cases: functional, cell-based
What all share (details): Homo sapiens

Description for BL-41: SANGER: Inhibition of human BL-41 cell growth in a cell viability assay.
Description for CA46: SANGER: Inhibition of human CA46 cell growth in a cell viability assay.
Description for DMS-153: SANGER: Inhibition of human DMS-153 cell growth in a cell viability assay.
Description for Daudi: SANGER: Inhibition of human Daudi cell growth in a cell viability assay.
Description for EHEB: SANGER: Inhibition of human EHEB cell growth in a cell viability assay.
Description for EW-22: SANGER: Inhibition of human EW-22 cell growth in a cell viability assay.
Description for KMS-12-PE: SANGER: Inhibition of human KMS-12-PE cell growth in a cell viability assay.
Description for Kasumi 1: SANGER: Inhibition of human KASUMI-1 cell growth in a cell viability assay.
Description for LB996-RCC: SANGER: Inhibition of human LB996-RCC cell growth in a cell viability assay.
Description for NALM-6: SANGER: Inhibition of human NALM-6 cell growth in a cell viability assay.
Description for NB7: SANGER: Inhibition of human NB7 cell growth in a cell viability assay.
Description for NCI-H1436: SANGER: Inhibition of human NCI-H1436 cell growth in a cell viability assay.
Description for NCI-H2196: SANGER: Inhibition of human NCI-H2196 cell growth in a cell viability assay.
Description for NCI-H748: SANGER: Inhibition of human NCI-H748 cell growth in a cell viability assay.
Description for P31-FUJ: SANGER: Inhibition of human P31-FUJ cell growth in a cell viability assay.
Description for REH: SANGER: Inhibition of human REH cell growth in a cell viability assay.
Description for SK-MM-2: SANGER: Inhibition of human SK-MM-2 cell growth in a cell viability assay.
Description for SUP-T1: SANGER: Inhibition of human SUP-T1 cell growth in a cell viability assay.
Description for U-698-M: SANGER: Inhibition of human U-698-M cell growth in a cell viability assay.

For the compound `CCn1c(-c2nonc2N)nc2cnc(Oc3cccc(NC(=O)c4ccc(OCCN5CCOCC5)cc4)c3)cc21` [GSK-269962A], the half-maximal inhibitory concentration (IC50) in the experiment on REH, in the experiment with SK-MM-2, in the experiment on P31-FUJ, in the experiment with LB996-RCC, with NCI-H748 and in the experiment with CA46 was above 2.5 µM throughout. Besides, the IC50 with NB7, with U-698-M, with KMS-12-PE, in the experiment on Kasumi 1, in the experiment on EW-22 and with NCI-H2196 was above 2.5 µM each time. For the same compound, the concentration for half-maximal inhibition (IC50) – broadly, the midpoint of a concentration-inhibition curve – was above 2.5 µM in the experiment with NCI-H1436; above 2.5 µM in the experiment on DMS-153; 2.1 µM in the experiment with Daudi; 1.56 µM in the experiment on NALM-6; above 2.5 µM in the experiment with SUP-T1; above 2.5 µM in the experiment with BL-41.

Turning to `Cc1nc(Nc2ncc(C(=O)Nc3c(C)cccc3Cl)s2)cc(N2CCN(CCO)CC2)n1` [DASATINIB], the IC50 with REH is above 1.28 µM; with SK-MM-2, above 1.28 µM; with P31-FUJ, above 1.28 µM; in the experiment on LB996-RCC it was 0.00991 µM; with NCI-H748, above 1.28 µM; in the experiment on CA46, above 1.28 µM. Moreover, the IC50 in the experiment on EHEB, in the experiment with NB7, in the experiment with U-698-M, in the experiment with KMS-12-PE, with Kasumi 1 and in the experiment with NCI-H2196 was above 1.28 µM in each case. In addition, the half-maximal inhibitory concentration (IC50) in the experiment with NCI-H1436 was above 1.28 µM; in the experiment on DMS-153, above 1.28 µM; in the experiment with Daudi it was above 1.28 µM; in the experiment on NALM-6, 0.193 µM; in the experiment with SUP-T1, above 1.28 µM; with BL-41, 0.291 µM.

For `Cc1n[nH]c2ccc(-c3cncc(OC[C@@H](N)Cc4c[nH]c5ccccc45)c3)cc12` [A-443654], the IC50 is above 1.02 µM in the experiment on REH; 0.623 µM in the experiment with SK-MM-2; above 1.02 µM in the experiment on P31-FUJ; 0.122 µM in the experiment on LB996-RCC; 0.508 µM with NCI-H748; above 1.02 µM in the experiment with CA46. Moreover, the concentration for half-maximal inhibition (IC50) in the experiment with EHEB is 0.402 µM; in the experiment on NB7, above 1.02 µM; in the experiment on U-698-M, above 1.02 µM; in the experiment on KMS-12-PE, above 1.02 µM; in the experiment on Kasumi 1 it was above 1.02 µM; with NCI-H2196, 0.648 µM. Besides, the 50% inhibitory concentration (IC50) in the experiment with NCI-H1436 was 0.477 µM; with DMS-153, 0.669 µM; in the experiment with Daudi, 0.355 µM; with NALM-6 it was 0.128 µM; in the experiment with SUP-T1, above 1.02 µM; in the experiment on BL-41, 0.0963 µM.

As to `Cc1ccc(NC(=O)c2cccc(C(C)(C)C#N)c2)cc1Nc1ccc2ncn(C)c(=O)c2c1`, the half-maximal inhibitory concentration (IC50) with REH, with SK-MM-2, in the experiment with P31-FUJ, in the experiment on LB996-RCC, in the experiment on NCI-H748 and in the experiment with CA46 was above 4 µM in each case. The IC50 with EHEB, in the experiment with NB7, in the experiment on U-698-M, in the experiment with KMS-12-PE, in the experiment with Kasumi 1 and with EW-22 was above 4 µM each time. In addition, the half-inhibitory concentration (IC50) in the experiment on NCI-H2196 is above 4 µM; with NCI-H1436, above 4 µM; in the experiment with DMS-153, above 4 µM; with Daudi it was above 4 µM; in the experiment on NALM-6, above 4 µM; in the experiment with SUP-T1, 1.74 µM. Also, in the experiment on BL-41, the 50% inhibitory concentration (IC50) was above 4 µM.

With `Cc1[nH]c(/C=C2\C(=O)Nc3ccc(S(=O)(=O)Cc4c(Cl)cccc4Cl)cc32)c(C)c1C(=O)N1CCC[C@@H]1CN1CCCC1` [PHA-665752], the IC50 with REH, in the experiment with SK-MM-2, with P31-FUJ, with LB996-RCC, with NCI-H748 and with CA46 was above 2 µM throughout. Besides, the IC50 in the experiment on EHEB, in the experiment on NB7, in the experiment on U-698-M, in the experiment on KMS-12-PE, in the experiment with Kasumi 1 and with EW-22 was above 2 µM each time. Besides, the IC50 with NCI-H2196, in the experiment with NCI-H1436, in the experiment with DMS-153, in the experiment on Daudi, with NALM-6 and in the experiment on SUP-T1 was above 2 µM in each case. The compound also yielded an IC50 in the experiment on BL-41 above 2 µM.
